Structures can show the parent of a compound that is named as a salt.
Tests used:
CYP2D6*1 [1] = target: T1, CYP2D6*1 (Homo sapiens, UniProt P10635); experiment: Inhibition of tramadol O-demethylation, CYP2D6*1 Bactosomes
CYP2D6*10 [2] = target: T2, CYP2D6*10 (Homo sapiens, UniProt P10635, P34S/S486T); experiment: Inhibition of tramadol O-demethylation, CYP2D6*10 Bactosomes; settings: for Ki Ratio CYP2D6*10/CYP2D6*1: Ki of variant allele / Ki of CYP2D6*1
CYP2D6*2 [3] = target: T3, CYP2D6*2 (Homo sapiens, UniProt P10635, R296C/S486T); experiment: Inhibition of tramadol O-demethylation, CYP2D6*2 Bactosomes; settings: for Ki Ratio CYP2D6*2/CYP2D6*1: Ki of variant allele / Ki of CYP2D6*1
CYP2D6*17 [4] = target: T4, CYP2D6*17 (Homo sapiens, UniProt P10635, R296C/S486T/T107I); experiment: Inhibition of tramadol O-demethylation, CYP2D6*17 Bactosomes; settings: for Ki Ratio CYP2D6*17/CYP2D6*1: Ki of variant allele / Ki of CYP2D6*1
CYP2D6*1 [5] = target: T1, CYP2D6*1
CYP2D6*17 [6] = settings: tramadol as substrate; cited from earlier work
CYP2D6*10 [7] = settings: microsomes prepared from insect cells; cited from earlier work
CYP2D6*10 [8] = target: T2, CYP2D6*10
CYP2D6*2 [9] = target: T3, CYP2D6*2
CYP2D6*17 [10] = target: T4, CYP2D6*17

CN(C/C=C/C#CC(C)(C)C)Cc1cccc2ccccc12 [Terbinafine, terbinafine]
Ki (CYP2D6*1 [1]): 0.0173 µM
Ki (CYP2D6*10 [2]): 0.235 µM
Ki Ratio CYP2D6*10/CYP2D6*1 (CYP2D6*10 [2]): 13.61
Ki (CYP2D6*2 [3]): 0.067 µM
Ki Ratio CYP2D6*2/CYP2D6*1 (CYP2D6*2 [3]): 3.87
Ki (CYP2D6*17 [4]): 0.844 µM
Ki Ratio CYP2D6*17/CYP2D6*1 (CYP2D6*17 [4]): 48.77

COc1cccc(C2(O)CCCCC2CN(C)C)c1 (stereo not drawn) [Tramadol, tramadol hydrochloride]
CLint (CYP2D6*1 [5]; CYP2D6*1, CLint = Vmax/Km): 0.4 μL/min/pmol P450
Vmax (CYP2D6*1 [5]; CYP2D6*1, O-desmethyltramadol formation): 22.6 pmol/min/pmol P450
Km at 30 min (CYP2D6*1 [5]; human, recombinant CYP2D6*1 Bactosomes, pH 7.4): 59.6 µM
intrinsic clearance relative to CYP2D6*1 (CYP2D6*17 [6]): 36%
intrinsic clearance value, % of that for CYP2D6*1 (CYP2D6*10 [7]): 6.9%
intrinsic clearance compared to CYP2D6*1 (CYP2D6*10 [8]; CYP2D6*10, relative to CYP2D6*1): 20%
CLint ratio CYP2D6*X/CYP2D6*1 (CYP2D6*10 [8]; CYP2D6*10/CYP2D6*1): 0.2
CLint (CYP2D6*10 [8]; CYP2D6*10, CLint = Vmax/Km): 0.1 μL/min/pmol P450
Vmax (CYP2D6*10 [8]; CYP2D6*10, O-desmethyltramadol formation): 13.6 pmol/min/pmol P450
Km at 30 min (CYP2D6*10 [8]; human, recombinant CYP2D6*10 Bactosomes, pH 7.4): 204 µM
intrinsic clearance compared to CYP2D6*1 (CYP2D6*2 [9]; CYP2D6*2, relative to CYP2D6*1): 180%
CLint ratio CYP2D6*X/CYP2D6*1 (CYP2D6*2 [9]; CYP2D6*2/CYP2D6*1): 1.8
CLint (CYP2D6*2 [9]; CYP2D6*2, CLint = Vmax/Km): 0.7 μL/min/pmol P450
Vmax (CYP2D6*2 [9]; CYP2D6*2, O-desmethyltramadol formation): 39.7 pmol/min/pmol P450
Km at 30 min (CYP2D6*2 [9]; human, recombinant CYP2D6*2 Bactosomes, pH 7.4): 59.4 µM
intrinsic clearance compared to CYP2D6*1 (CYP2D6*17 [10]; CYP2D6*17, relative to CYP2D6*1): 10%
CLint ratio CYP2D6*X/CYP2D6*1 (CYP2D6*17 [10]; CYP2D6*17/CYP2D6*1): 0.1
Vmax (CYP2D6*17 [10]; CYP2D6*17, O-desmethyltramadol formation): 5.6 pmol/min/pmol P450
Km at 30 min (CYP2D6*17 [10]; human, recombinant CYP2D6*17 Bactosomes, pH 7.4): 149 µM

CC(NC(C)(C)C)C(=O)c1cccc(Cl)c1 (stereo not drawn) [Bupropion, bupropion]
Ki (CYP2D6*1 [1]): 11.9 µM
Ki (CYP2D6*10 [2]): 55.9 µM
Ki Ratio CYP2D6*10/CYP2D6*1 (CYP2D6*10 [2]): 4.69
Ki (CYP2D6*2 [3]): 11.5 µM
Ki Ratio CYP2D6*2/CYP2D6*1 (CYP2D6*2 [3]): 0.96
Ki (CYP2D6*17 [4]): 20.2 µM
Ki Ratio CYP2D6*17/CYP2D6*1 (CYP2D6*17 [4]): 1.70
